“Also recorded” adds a separate entry of the source.
How the values were obtained:
[1] = system: AlCl3-induced AD rat model; test: Morris water maze (MWM) test in AlCl3-induced AD rats; format: in vivo; conditions: for Learning (s): escape latency; for Learning (s) / Memory (s): mean ± SE, n = 6; for Memory (s): time spent in target quadrant
Procedure: All procedures were conducted conforming to the applicable National Institutes of Health standards and regulations for the Care and Use of Laboratory Animals. In this experiment, adult male Dawley rats in excellent condition weighing between 300 and 320 g were used. The animals were acquired from the Nile Company for Pharmaceuticals and Chemical Industries (Cairo, Egypt). They were placed in a controlled laboratory setting with unrestricted access to water, a temperature range of 24 to 26 °C, and 12 h a light–dark cycle. Three rats per cage were housed in polycarbonate cages that were individually packed with paper and encased with stainless steel wire.
Spatial learning and memory were inspected using the MWM test. Tap water was poured into a 150 cm diameter by 60 cm high circular water tank until it reached a depth of 30 cm (25 ± 2 °C). To make the water […], non-toxic white dye was applied. The east, west, north, and south quadrants of the pool were essentially separated into four equal sections. At a specific spot in the middle of one quadrant, an escape platform with a diameter of 10 cm was submerged 2 cm below the water’s surface. The platform stood in the exact same quadrant throughout the testing. The rats’ swimming route was recorded by a video camera situated above the pool. From a designated spot in each quadrant, each rat was submerged in the water with its back turned to the pool wall, and it was then left to swim to the platform. The rats received training sessions every day for three days in a row, with four trials conducted in each session. Before the next trial began, the animals were kept a maximum of 60 s to explore the hidden platform. After that, they were permitted to relax on it for 20 s. The rat was positioned gently on the platform and allowed 20 s to rest if it took longer than 60 s to locate it. The time taken to find the platform, or the escape latency, was documented. In order to do a probing test on the fourth day, the platform was detached away, and the rats were given 60 s to swim liberally. The time spent in the assigned quadrant was counted.

[2] = system: BDNF; test: Brain BDNF level (ELISA); format: in vivo, rat; conditions: AlCl3-induced AD rats; for BDNF (ng/mL): brain tissue, mean ± SE, n = 6
Procedure: (§1) The brain tissues of the rats were removed and rigorously washed in isotonic saline 24 h after they were euthanized following the last behavioral test. For histological investigation, four brains per group were preserved for the whole night in 10% neutral buffered formalin. The remaining six brains were split into two sections each. In order to create a 10% homogenate (w/v), the first component was instantaneously homogenized using an ice-cold solution that included 300 mM sucrose and 50 mM Tris-HCl (pH 7.4). The homogenate was centrifuged at 1800× g for 10 min at 4 °C for biochemical tests, and the supernatant was thereafter kept at −20 °C. The second portion was set aside for use in RT-PCR analysis at −80 °C [94].
(§2) See Supplementary Information.

[3] = system: AChE; format: in vivo; set-up: reduction in AChE levels: concentration or dose not given beside the values; conditions: AlCl3-induced AD rats; for AChE (ng/g Tissue): brain tissue, mean ± SE, n = 6; for reduction in AChE levels: brain
[4] = system: TNF-α; test: Brain TNF-α level (ELISA); format: in vivo, rat; conditions: AlCl3-induced AD rats; for TNF-α (pg/g Tissue): mean ± SE, n = 6
Procedure: as §1, with “[94]. […]” for “[94].”

[5] = system: IL-1β; test: Brain IL-1β level (ELISA); format: in vivo, rat; set-up: reduction in IL-1β levels: concentration or dose not given beside the values; conditions: AlCl3-induced AD rats; for IL-β (pg/g Tissue): mean ± SE, n = 6
Procedure: as §1, with “[94]. […]” for “[94].”

[6] = system: Caspase-1; test: Caspase-1 gene expression (RT-qPCR); format: in vivo, rat; set-up: reduction of Caspase-1 levels: concentration or dose not given beside the values; conditions: AlCl3-induced AD rats; for Caspase-1: gene expression, mean ± SE, n = 6
Procedure: as §1, §2

[7] = system: BAX; test: BAX gene expression (RT-qPCR); format: in vivo, rat; conditions: AlCl3-induced AD rats; for BAX: gene expression, mean ± SE, n = 6
Procedure: as §1, §2

[8] = system: Bcl-2; test: Bcl-2 gene expression (RT-qPCR); format: in vivo, rat; conditions: AlCl3-induced AD rats; for Bcl-2: gene expression, mean ± SE, n = 6
Procedure: as §1, §2

[9] = system: Wnt3a; test: Brain Wnt3a level; format: in vivo, rat; conditions: AlCl3-induced AD rats; for Wnt3a (ng/g Tissue): mean ± SE, n = 6
Procedure: as §1, §2

[10] = system: β-catenin; test: Brain β-catenin level; format: in vivo, rat; conditions: AlCl3-induced AD rats; for β-Catenin (ng/L): mean ± SE, n = 6
Procedure: as §1, §2

[11] = system: SOD; test: Brain SOD activity (colorimetric); format: in vivo, rat; conditions: AlCl3-induced AD rats; for SOD(U/g): brain tissue, mean ± SE, n = 6
Procedure: as §1
(§3) The SOD enzyme activity was estimated using the Marklund et al. method, which is founded on the enzyme’s capacity to decrease the nitro blue tetrazolium dye at a wavelength of 540 nm. To evaluate the TAC, a colorimetric approach was employed to estimate the amount of hydrogen peroxide that remains after 3,5-dichloro-2-hydroxybenzene sulphonate is converted to a colored product at 660 nm.

[12] = system: TAC; test: Brain TAC (colorimetric); format: in vivo, rat; conditions: AlCl3-induced AD rats; for TAC (µmol/g Tissue): brain tissue, mean ± SE, n = 6
Procedure: as §1, §3

[13] = system: Nrf-2; test: Nrf-2 mRNA expression (RT-qPCR); format: in vivo, rat; conditions: AlCl3-induced AD rats; for Nrf-2: mRNA expression in brain tissue, mean ± SE, n = 6
Procedure: as §1, §2

[14] = system: brain tissue (CC, ST, FD, SN neurons); test: Histopathological examination of brain tissue; format: in vivo, rat; conditions: brain sections, AlCl3-induced AD rats; for histopathological finding in CC, ST, FD and SN (NP = nuclear pyknosis): H&E
Procedure: as §1
Brain tissue samples were stationed in 10% formalin for 24 h, washed with water, and then serially diluted with alcohol to induce dehydration. After being submerged in paraffin, the specimens were cut into segments that were 4 µm thick using a microtome.

[15] = molecular target: T1, AChE (Homo sapiens, UniProt P22303); test: biochemical; conditions: colorimetric kit, 412 nm
T1 construct: purchased BioVision K197-100
T1 sequence (P22303 32-614): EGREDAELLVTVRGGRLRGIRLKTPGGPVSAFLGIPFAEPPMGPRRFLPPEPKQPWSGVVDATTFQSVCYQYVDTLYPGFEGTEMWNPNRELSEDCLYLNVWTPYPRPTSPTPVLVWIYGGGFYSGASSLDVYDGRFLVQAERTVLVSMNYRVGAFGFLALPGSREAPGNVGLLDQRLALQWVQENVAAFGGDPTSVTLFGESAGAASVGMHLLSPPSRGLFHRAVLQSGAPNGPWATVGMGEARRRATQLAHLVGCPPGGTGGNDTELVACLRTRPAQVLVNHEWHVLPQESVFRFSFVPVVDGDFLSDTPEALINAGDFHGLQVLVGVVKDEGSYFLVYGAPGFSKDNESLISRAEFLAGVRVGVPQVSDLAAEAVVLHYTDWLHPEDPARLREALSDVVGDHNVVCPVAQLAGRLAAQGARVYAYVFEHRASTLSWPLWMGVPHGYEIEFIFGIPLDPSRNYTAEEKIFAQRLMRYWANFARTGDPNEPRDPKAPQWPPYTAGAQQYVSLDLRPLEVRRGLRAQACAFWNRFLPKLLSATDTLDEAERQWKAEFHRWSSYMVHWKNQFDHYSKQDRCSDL
Procedure: All newly created compounds were subjected to an AChE enzyme inhibitory screening. This was performed with the Colorimetric AChE Inhibitor Screening Kit (BioVision Catalog # K197-100). The 96-well assay kit provides a rapid, simple, and reliable way to screen for AChE inhibitors in large quantities. […] A completely transparent 96-well plate with a flat bottom was loaded with 10 µL of test inhibitors that were diluted (20×). […] A measure of 10 μL of diluted AChE was applied to each well that contained compounds, inhibitor control, and solvent control. […] Measures of 25 μL of AChE assay buffer, 5 μL of probe mix, and 10 μL of diluted AChE substrate were mixed to create the reaction mix. The reaction mix was mixed with the compound, enzyme control, and inhibitor control. […] The IC50 was calculated using nonlinear regression analysis using the response–concentration (log) curve.

Structure (SMILES)	Learning (s) [1]	Memory (s) [1]	BDNF (ng/mL) [2]	AChE (ng/g Tissue) [3]	reduction in AChE levels [3]	decline in TNF-α levels [4]	TNF-α (pg/g Tissue) [4]	reduction in IL-1β levels [5]	IL-β (pg/g Tissue) [5]	Caspase-1 [6]	BAX [7]	Bcl-2 [8]	elevation of Wnt3a levels [9]	Wnt3a (ng/g Tissue) [9]	elevation of β-catenin levels [10]	β-Catenin (ng/L) [10]	SOD(U/g) [11]	improvement of TAC levels [12]	TAC (µmol/g Tissue) [12]	Nrf-2 [13]	further results
CCOC(=O)c1c(OC(=O)CCl)sc2c1CCCCC2 [Compound 4, Ethyl 2-(2-chloroacetoxy)-5,6,7,8-tetrahydro-4H-cyclohepta[b]thiophene-3-carboxylate]	31.5 ± 1.48 ^abc s	26.67 ± 1.54 ^abc s	75.75 ± 0.01 ^abc ng/mL	43.89 ± 0.19 ^abc ng/g Tissue	34.8%	35.4%	113.6 ± 0.83 ^abc pg/g Tissue	30%	82.82 ± 1.1 ^abc pg/g Tissue	6.46 ± 0.120 ^abc	7.42 ± 0.030 ^abc	0.38 ± 0.020 ^abc	2.8 fold	0.34 ± 0.01 ^abc ng/g Tissue	3.9 fold	6.17 ± 0.07 ^abc ng/L	1.75 ± 0.31 ^abc U/g	2.7 times	25.87 ± 0.965 ^abc µmol/g Tissue	0.31 ± 0.004 ^abc	reduction in escape latency [1]: 35.9%; suppression of BAX gene expression [7]: 23.3%; SOD activity levels ([11]; brain): 1.75 U/g tissue; histopathological finding in CC, ST, FD and SN (NP = nuclear pyknosis) [14]: moderate NP in CC and SN, a moderate number of necrotic neurons in FD, as well as normal histology of ST neurons; also recorded: significant NP in the CC, FD, and SN, whereas the striatal neurons’ histological structures remained normal; IC50 [15]: 41.2 ± 1.42 µM
O=C1CN(c2ccc(Cl)cc2)C(=O)c2c(sc3c2CCCCC3)O1 [Compound 12, 4-(4-Chlorophenyl)-3,4,7,8,9,10-hexahydro-6H-cyclohepta[4,5]thieno[3,2-f][1,4]oxazepine-2,5-dione]	23.5 ± 1.23 ^abc s	37.17 ± 1.52 ^abc s	83.62 ± 0.06 ^abc ng/mL	35.66 ± 0.19 ^abc ng/g Tissue	47%	62.5%	65.98 ± 0.91 ^abc pg/g Tissue	53.9%	54.51 ± 1.3 ^abc pg/g Tissue	4.54 ± 0.090 ^abc	4.85 ± 0.110 ^abc	0.82 ± 0.020 ^abc	6.3 fold	0.76 ± 0.01 ^abc ng/g Tissue	6.3 fold	9.91 ± 0.15 ^abc ng/L	2.15 ± 0.39 ^abc U/g	approximately 3 times	29.33 ± 0.57 ^abc µmol/g Tissue	0.64 ± 0.020 ^abc	increase in quadrant residence time [1]: 3.7 times; elevation of BDNF levels [2]: 2 fold; reduction of Caspase-1 levels [6]: 52.3%; upregulation of Bcl-2 gene expression [8]: 6.8 fold; elevation of Nrf-2 mRNA expression [13]: 4 fold; histopathological finding in CC, ST, FD and SN (NP = nuclear pyknosis) [14]: normal histology in CC and FD, as well as mild NP in ST and SN; histology of CC neurons and FD [14]: normal histological structures; pyknosis in ST and SN neurons [14]: minimal pyknosis; IC50 [15]: 10.9 ± 0.38 µM
N#Cc1ccc(N2CC(=O)Oc3sc4c(c3C2=O)CCCCC4)cc1 [Compound 13, 4-(2,5-Dioxo-2,3,7,8,9,10-hexahydro-6H-cyclohepta[4,5]thieno[3,2-f][1,4]oxazepin-4(5H)-yl)benzonitrile]	14.17 ± 0.95 ^abc s	40.50 ± 2.62 ^abc s	104.9 ± 0.07 ^abc ng/mL	24.35 ± 0.8 ^abc ng/g Tissue	63.8%	70.2%	52.38 ± 0.59 ^abc pg/g Tissue	61.3%	45.79 ± 1.34 ^abc pg/g Tissue	3.85 ± 0.070 ^abc	5.80 ± 0.120 ^abc	0.79 ± 0.020 ^abc	7 fold	0.84 ± 0.01 ^abc ng/g Tissue	7.7 fold	11.67 ± 0.13 ^abc ng/L	2.53 ± 0.25 ^abc U/g	~3.4 times	32.9 ± 1.22 ^abc µmol/g Tissue	0.78 ± 0.010 ^abc	increase in quadrant residence time [1]: about 4.1 times; reduction in escape latency [1]: 71.2%; elevation of BDNF levels [2]: 2.4 fold; reduction of Caspase-1 levels [6]: 59.5%; upregulation of Bcl-2 gene expression [8]: 6.5 fold; elevation of Nrf-2 mRNA expression [13]: 4.8 fold; histopathological finding in CC, ST, FD and SN (NP = nuclear pyknosis) [14]: normal histology of CC and FD, and moderate NP in ST and SN; histology of CC neurons and FD [14]: normal histological structures; pyknosis in ST and SN neurons [14]: moderate pyknosis; IC50 [15]: 5.04 ± 0.17 µM

Source: paper PMC12389534, “Unlocking Therapeutic Potential of Novel Thieno-Oxazepine Hybrids as Multi-Target Inhibitors of AChE/BChE and Evaluation Against Alzheimer’s Disease: In Vivo, In Vitro, Histopathological, and Docking Studies” (Pharmaceuticals, 2025)
